Laboratory results reported in ChEMBL document CHEMBL3045229, “Molluscicidal and insecticidal potential of monoterpenes on the white garden snail, Theba pisana (Muller) and the cotton leafworm, Spodoptera littoralis (Boisduval)” (2010).
≈ marks a conversion by molar mass, not a printed value. Calls of active or inactive are those of the source. No cut-off for these calls is given here.

Key:
Assay type in all cases: functional
[1] = system: Theba pisana; experiment: Contact molluscicidal activity against Theba pisana (white garden snail ) exposed to compound throgh application to surface of snail body inside shell assessed as compound level per snail causing snail mortality after 24 hr
[2] = system: Theba pisana; experiment: Fumigant molluscicidal activity against Theba pisana (white garden snail) assessed as snail mortality after 24 hr
[3] = system: Spodoptera littoralis; experiment: Contact insecticidal activity against cotton leafworm Spodoptera littoralis third-instar larvae exposed to 1 mg/larva compound application through dorsum of larvae followed by feeding on fresh castor bean leaves assessed as insect mortality after 24 hr; conditions: for Activity: Skin of body
[4] = system: Spodoptera littoralis; experiment: Fumigant insecticidal activity against cotton leafworm Spodoptera littoralis third-instar larvae fed on fresh castor bean leaves assessed as insect mortality after 24 hr

Row | SMILES | LD50 [1] [µg] | LC50 [2] [µg/mL] | Activity [3] | LC50 [4] [µg/mL] | mortality [3] [%]
1 | C=C(C)[C@@H]1CC=C(C)CC1 [(-)-LIMONENE] | 60.27 | 8.39 (≈ 61.6 µM) | Active | 11.4 (≈ 83.4 µM) | –
2 | C=C[C@@](C)(O)CC=C(C)C [(-)-LINALOOL] | – | – | Active | – | –
3 | CC1(C)C(=O)[C@@]2(C)CC[C@H]1C2 [(L)-FENCHONE] | 135.36 | 2.51 (≈ 16.5 µM) | Active | 2.27 (≈ 14.9 µM) | –
4 | C=C1C2CCC(C2)C1(C)C (configuration not stated) [CAMPHENE] | >1000 | 33.5 (≈ 246 µM) | Active | > 100 | –
5 | CC12CCC(CC1=O)C2(C)C (configuration not stated) [CAMPHOR] | 89.15 | 7.98 (≈ 52.4 µM) | Active | 5.61 (≈ 36.9 µM) | –
6 | CC(C)c1ccc(C=O)cc1 [CUMINALDEHYDE] | 28.37 | > 100 | – | > 100 | 70
7 | CC12CCC(CC1)C(C)(C)O2 [EUCALYPTOL] | 223.44 | 4.17 (≈ 27 µM) | Active | 4.34 (≈ 28.1 µM) | –
8 | CC(C)=CCC/C(C)=C/CO [GERANIOL] | 42.29 | > 100 | – | > 100 | 76.7
9 | C=C(C)[C@@H]1CC=C(C)C(=O)C1 [L-CARVONE] | 132.18 | 27 (≈ 180 µM) | Active | 19.5 (≈ 130 µM) | –
10 | CC1CCC(C(C)C)C(O)C1 (configuration not stated) [MENTHOL] | 99.44 | > 100 | Active | 9.36 (≈ 59.9 µM) | –
11 | CNC(=O)Oc1cc(C)c(SC)c(C)c1 [METHIOCARB] | 188.68 | – | – | – | –
12 | C=CC(=C)CCC=C(C)C [MYRCENE] | >1000 | 3.88 (≈ 28.5 µM) | Active | > 100 | –
